{
  "source": "patent US11345659B2",
  "about": "“Pipecolic esters for inhibition of the proteasome” (THE BOARD OF REGENTS OF THE UNIVERSY OF TEXAS SYSTEM, priority 2018, dated 2022)",
  "key": {"20 S proteasome [1]": {"target": "T1, 20 S proteasome (Homo sapiens, UniProt P25787+P25789)", "T1 construct": "purified from erythrocytes; purchased Enzo Life Sciences, Inc. (Farmingdale, N.Y.); host or cells: human erythrocytes", "experiment": "T-L peptidase activity of tRpt5-activated 20 S core", "format": "biochemical", "conditions": "core activated with tRpt5"}, "FKBP12": {"target": "T2, FKBP12 (Homo sapiens, UniProt P62942)", "T2 construct": "endogenous in cells; host or cells: RPMI 8226 (ATCC)", "T2 sequence (P62942 whole entry)": "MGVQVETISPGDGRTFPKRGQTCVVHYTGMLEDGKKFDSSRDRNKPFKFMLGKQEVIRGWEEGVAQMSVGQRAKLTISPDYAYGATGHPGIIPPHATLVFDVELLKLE", "experiment": "Suppression of rapamycin inhibition of S6 phosphorylation by competing for FKBP12", "format": "cell-based", "conditions": "RPMI 8226, 24 hours; FK506 10 μM, compound 3 and B1 0.2 μM, with rapamycin", "method": "(§1) Human multiple myeloma RPMI 8226 cells were purchased from American Type Culture Collection (ATCC; Manassas, Va.) and cultured according to ATCC specifications. […] The content of live cells was determined by excluding the Trypan Blue-stained cells. The cells were counted with TC20 Automated Cell Counter (Bio-Rad Laboratories, Hercules, Calif.) and EC50 was calculated with Origin Pro 2017 (OriginLab Corporation, Northampton, Mass.). When indicated, the cells were harvested, washed twice in PBS, resuspended in dilution buffer and stored in −80° C. To prepare crude lysates the thawed preparations were vortexed with glass beads and centrifuged for 5 min 5,000×g (4° C.). The supernate was centrifuged for 20 min 14,000×g. The resulting supernate was used as “crude lysate.” SDS-PAGE was carried in 12% acrylamide, Tris-glycine gels from Invitrogen. Chameleon Duo (Li-Cor) and Rainbow RPN800E (GE Healthcare) molecular weight standards were separated on each gel alongside lysates. The proteins were transferred to nitrocellulose membrane in a semi-dry system. The membranes were probed with specific primary antibodies from Life Technologies (S6, PS6) and Li-Cor (COX IV), and then with secondary antibodies from Li-Cor. In each experiment visualization of S6, PS6 and COX IV was performed on the same membrane with Odyssey Infrared Imaging System (Li-Cor). […]"}, "20 S proteasome [2]": {"target": "T1, 20 S proteasome", "experiment": "PGPH peptidase activity of tRpt5-activated 20 S core", "format": "biochemical", "conditions": "core activated with tRpt5", "method": "Human housekeeping 20 S and 26 S and complexes purified from erythrocytes were purchased from Enzo Life Sciences, Inc. (Farmingdale, N.Y.). The 1 mg/ml stock 20 S proteasome was diluted to 0.2 mg/ml working solution in 50 mM Tris/HCl, pH 8 containing 20% glycerol (dilution buffer). For the 26 S proteasome stock, the dilution buffer was supplemented with 2 mM ATP, 1 mM MgCl2, and 1 mM DTT (dithiothreitol). […] of fluorescence emitted by 7-amino-4-methylcoumarin ([…]; Bachem Bioscience Inc., Philadelphia, Pa.), used at concentration of 100 μM. Free AMC (Sigma-Aldrich, St. Louis, Mo.) was used as the standard. The Rpt5 C-terminal peptide was synthesized (standard solid-phase peptide chemistry) and purified to at least 98% purity by GenScript (Piscataway, N.J.). The Rpt5 peptide and the peptide substrate were dissolved in dimethylsulfoxide (DMSO) and such stock solutions were stored at −20° C. […]\nThe reaction was carried out in 96-well plates, in 100 μL of reaction mixture, for 1 hour at 37° C. […] The reaction rates were calculated from a linear segment of kinetic curves constructed from measurements in 1-minutes intervals (Fluoroskan Ascent plate reader; Thermo Fisher Scientific Inc., Waltham, Mass.). Reaction rates were calculated using a linear fit executed by Slope Analyzer and Enzyme Kinetics applications launched within Origin Pro 2017 (OriginLab). […]"}, "mTOR": {"target": "T3, mTOR (Homo sapiens, UniProt P42345+P62942)", "T3 construct": "endogenous in cells; host or cells: RPMI 8226 (ATCC)", "experiment": "Western blot of S6 phosphorylation in RPMI 8226 cells", "format": "cell-based", "conditions": "RPMI 8226, 24 hours; rapamycin 2 nM, compound 3 and B1 0.2 μM", "method": "as §1"}},
  "note": "“Also recorded” adds a separate entry of the source.",
  "data": [
    {"smiles": "COc1cc(CCCOC(=O)[C@@H]2CCCCN2C(=O)OCc2ccccc2)cc(OC)c1OC", "note": "[Compound 3, 1-benzyl 2-(3-(3,4,5-trimethoxyphenyl)propyl) (S)-piperidine-1,2-dicarboxylate]", "values": [
      {"measurement": "effect on T-L peptidase", "setting": "20 S proteasome [1]", "value": "not affected"},
      {"measurement": "suppression of rapamycin inhibition of S6 phosphorylation (FKBP12 binding)", "setting": "FKBP12", "value": "did not mimic the actions of FK506"},
      {"measurement": "IC50", "setting": "20 S proteasome [2]", "value": 2600, "unit": "nM"},
      {"measurement": "activity of mTOR (phosphorylation of S6)", "setting": "mTOR", "value": "neither B1 nor compound 3 affected the activity of mTOR; also recorded: did not inhibit the S6 phosphorylation"}
    ]}
  ]
}
